Laboratory results published in ChEMBL document CHEMBL5346955, “Discovery of HPG1860, a Structurally Novel Nonbile Acid FXR Agonist Currently in Clinical Development for the Treatment of Nonalcoholic Steatohepatitis” (J Med Chem, 2023).
Converted amounts (≈) assume the structure as drawn.

Tests used:
Bile acid receptor [1] = target: T1, Bile acid receptor (Homo sapiens, UniProt Q96RI1); experiment: Agonist activity at human GAL4-FXR-LBD expressed in HEK293T cells assessed as transcriptional activity measured after 16 to 20 hrs by luciferase reporter gene assay; format: cell-based
T1 sequence (Q96RI1 whole entry): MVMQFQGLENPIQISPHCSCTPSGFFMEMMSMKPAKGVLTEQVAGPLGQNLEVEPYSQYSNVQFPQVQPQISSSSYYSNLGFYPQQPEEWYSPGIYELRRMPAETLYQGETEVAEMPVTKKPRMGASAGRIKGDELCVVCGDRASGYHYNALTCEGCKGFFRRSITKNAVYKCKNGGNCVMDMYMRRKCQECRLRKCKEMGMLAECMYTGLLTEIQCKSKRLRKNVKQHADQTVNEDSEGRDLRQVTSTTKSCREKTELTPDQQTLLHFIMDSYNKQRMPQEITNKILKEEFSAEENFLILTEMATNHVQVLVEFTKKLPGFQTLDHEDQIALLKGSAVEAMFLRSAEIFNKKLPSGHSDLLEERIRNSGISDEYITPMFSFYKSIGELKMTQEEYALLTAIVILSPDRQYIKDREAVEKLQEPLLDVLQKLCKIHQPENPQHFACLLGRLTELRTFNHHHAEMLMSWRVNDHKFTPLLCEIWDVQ

[2] = Metabolic stability in cynomolgus monkey liver microsomes assessed as half life at 1 uM measured upto 120 mins by UPLC/MS/MS analysis; format: ADME, Macaca fascicularis, Microsome
[3] = Metabolic stability in dog liver microsomes assessed as half life at 1 uM measured upto 120 mins by UPLC/MS/MS analysis; format: ADME, Canis lupus familiaris, Microsome
Bile acid receptor [4] = target: T1, Bile acid receptor; experiment: Agonist activity at GST-tagged human FXR-LBD in presence of luorescein-SRC2-2 coactivator peptide by TR-FRET assay
[5] = Solubility of the compound in PBS buffer at pH 7.4; format: physicochemical
[6] = Metabolic stability in rat liver microsomes assessed as half life at 1 uM measured upto 120 mins by UPLC/MS/MS analysis; format: ADME, Microsome
[7] = Metabolic stability in human liver microsomes assessed as half life at 1 uM measured upto 120 mins by UPLC/MS/MS analysis; format: ADME, Microsome

Row | SMILES | EC50 (Bile acid receptor [1]) [nM] | half-life at 1 µM [2] [h] | half-life at 1 µM [3] [h] | EC50 (Bile acid receptor [4]) [nM] | solubility [5] [µM] | half-life at 1 µM [6] [h] | half-life at 1 µM [7] [h]
1 | CC(C)c1onc(-c2c(Cl)cccc2Cl)c1CN1CCN(c2cc3cc(C(=O)O)ccc3s2)CC1 | 1190 | – | – | – | – | – | –
2 | C[C@@H]1CN(Cc2c(-c3c(Cl)cccc3Cl)noc2C2CC2)CCN1c1nc2c(F)cc(C(=O)O)cc2s1 | 39 | 1.94 | 6.67 | 6 | 129 (≈ 72.5 µg/mL) | 1.54 | 1.47
3 | CC(C)c1onc(-c2c(Cl)cccc2Cl)c1CN1CCN(c2cc3cc(C(=O)O)ccc3n2C)CC1 | > 5000 | – | – | 67 | – | – | –
4 | CCC1CN(Cc2c(-c3c(Cl)cccc3Cl)noc2C(C)C)CCN1c1nc2c(OC)cc(C(=O)O)cc2s1 (stereo not given) | 85 | – | – | 21 | – | – | –
5 | COc1cc(C(=O)O)cc2sc(N3CCC(Cc4c(-c5c(Cl)cccc5Cl)noc4C(C)C)C3)nc12 (stereo not given) | > 5000 | – | – | > 5000 | – | – | –
6 | CC(C)c1onc(-c2c(Cl)cccc2Cl)c1CN1CCN(c2nc3ccc(C(=O)O)cc3s2)CC1 | 256 | – | – | – | – | – | –
7 | COc1cc(C(=O)O)cc2sc(N3CCN(Cc4c(-c5c(Cl)cccc5Cl)noc4C4CC4)CC3C)nc12 (stereo not given) | 41 | – | – | 8 | – | – | –
8 | COc1cc(C(=O)O)cc2sc(C3CCN(Cc4c(-c5c(Cl)cccc5Cl)noc4C(C)C)C3)nc12 (stereo not given) | > 5000 | – | – | 266 | – | – | –
9 | COc1cc(C(=O)O)cc2sc(N3CCN(Cc4c(-c5c(Cl)cccc5Cl)noc4C4CC4)C[C@@H]3C)nc12 | 124 | 1.14 | 0.832 | 16 | – | 1.83 | 5.11
